A short description of the series: Drug release assay (hydrolysis rate test in pH 7.4 / pH 2.0 buffer, HPLC). Format: physicochemical. As for the experimental part: Preparation of pH2.0 Buffer Solution
Preparation of pH7.4 Buffer Solution
Method of Hydrolysis Rate Test
The compounds were dissolved in pH7.4/pH2.0 buffer solution, placed in a constant temperature shaker at 37° C. and 200 rpm, and sampled at 0 h, 0.5 h and 6 h respectively. The residual contents of the compounds relative to 0 h were tested at each time point.
The release rates (%) were calculated using the following equation: Release rate (%)=[A(0h)−A(xh)]/A(0h)×100%, (x=0, 0.5, 6), A(xh) is the peak area of compounds tested by HPLC at the indicated time point.
The hydrolysis constants (Kh) were calculated using the following equation: Hydrolysis constant Kh=−ln[100%−Release rate (%)]/t Results

Take `CCc1c2c(nc3ccc(OC(=O)CN(C4CCCCC4)C4CCCCC4)cc13)-c1cc3c(c(=O)n1C2)COC(=O)[C@]3(O)CC` [Example 19, (S)-4,11-diethyl-4-hydroxy-3,14-dioxo-3,4,12,14-tetrahydro-1H-pyrano[3′,4′:6,7]indolizino[1,2-b]quinolin-9-yl dicyclohexylglycinate]: where the note is “pH 2.0, Kh=-ln[100%-Release rate (%)]/t”, the “Hydrolysis constant Kh pH 2.0” value was found to be 0.041. In addition, the “Release rate (%) pH 2.0 (6 h)” value (pH 2.0 buffer solution, 37° C., 200 rpm, 6 h, residual content relative to 0 h by HPLC) is reported as 21.8%. Besides, under “pH 7.4, Kh=-ln[100%-Release rate (%)]/t”, the “Hydrolysis constant Kh pH 7.4” value turned out to be 0.865. The “Release rate (%) pH 7.4 (0.5 h)” value (pH 7.4 buffer solution, 37° C., 200 rpm, 0.5 h, residual content relative to 0 h by HPLC) was determined as 35.1%. In addition, the “Release rate (%) pH 7.4 (6 h)” value (pH 7.4 buffer solution, 37° C., 200 rpm, 6 h, residual content relative to 0 h by HPLC) is 100%.

The values are drawn from patent publication US12729186B2, “Prodrugs for sustained releasing therapeutic agents and uses thereof” (LIANGJIANG MEDICINE CO., LTD., priority 2020, dated 2026).
